Reference: ChEMBL document CHEMBL6096692, “Discovery of 2(1H)-Quinoxalinone Derivatives as Potent and Selective MAT2A Inhibitors for the Treatment of MTAP-Deficient Cancers” (J Med Chem, 2025)
pIC50: −log10 of the molar value. Several values for one entry are separate records, joined by “and”; a condition that tells them apart may be missing. Equal values may be shown once. Activity calls are given as the source filed them. No cut-off for these calls is given here.

How the values were obtained:
[1] = target: S-adenosylmethionine synthase isoform type-2 (Homo sapiens, UniProt P31153); test: Inhibition of MAT2A (unknown origin) using L-methionine and ATP as substrate preincubated with compound for 10 mins followed by substrate addition and measured after 60 mins by kinase-glo max reagent based microplate reader analysis
Chain of S-adenosylmethionine synthase isoform type-2 (P31153 whole entry, canonical isoform): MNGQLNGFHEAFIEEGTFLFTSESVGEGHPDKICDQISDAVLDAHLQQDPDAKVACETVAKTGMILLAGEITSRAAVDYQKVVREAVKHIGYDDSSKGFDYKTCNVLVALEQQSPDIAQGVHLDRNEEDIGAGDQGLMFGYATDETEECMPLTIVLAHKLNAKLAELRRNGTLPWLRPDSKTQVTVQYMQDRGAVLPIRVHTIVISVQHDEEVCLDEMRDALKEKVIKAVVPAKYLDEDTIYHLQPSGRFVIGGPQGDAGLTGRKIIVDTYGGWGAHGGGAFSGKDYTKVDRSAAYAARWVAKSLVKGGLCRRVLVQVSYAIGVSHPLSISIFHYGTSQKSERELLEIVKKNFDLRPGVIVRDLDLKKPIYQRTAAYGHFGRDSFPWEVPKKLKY

B16-F10 [2] = test: Antiproliferative activity against mouse B16-F10 cells harboring wild type MTAP assessed as inhibition of cell viability measured for 96 hrs by SRB assay; format: functional, cell-based; conditions: B16-F10, 96 h
B16-F10 [3] = test: Antiproliferative activity against MTAP knockout mouse B16-F10 cells assessed as inhibition of cell viability measured for 96 hrs by SRB assay; format: functional, cell-based; conditions: B16-F10, 96 h
[4] = Selectivity index, ratio of IC50 for antiproliferative activity against mouse B16-F10 cells harboring wild type MTAP assessed as inhibition of cell viability to IC50 for antiproliferative activity against MTAP knockout mouse B16-F10 cells assessed as inhibition of cell viability; format: functional
SF-126 = test: Induction of DNA damage in human SF-126 cells harboring wild type MTAP assessed as increase in gammaH2AX level at 0.1 to 10 uM measured for 96 hrs by Western blot analysis; format: functional, cell-based; conditions: dose 0.1-10 µM
MIA PaCa-2 = test: Antitumor activity against MTAP null human MIA PaCa-2 cells xenografted in mouse assessed as tumor growth inhibition at 30 to 60 mg/kg, po measured after 28 days; format: functional, organism-based; conditions: dose 30-60 mg/kg, time 28.0 day

Row | pIC50 [1] | pIC50 (B16-F10 [2]) | pIC50 (B16-F10 [3]) | Structure (SMILES) | Ratio IC50 [4] | Activity (SF-126) | Activity (MIA PaCa-2)
1 | < 6.00 |  |  | COc1ccc(-c2nc3cnc(NCC(F)(F)F)nc3n(-c3ccc(OCC(F)F)cc3)c2=O)cc1 |  |  | 
2 | 6.21 | 5.14 | 5.53 | Cn1cnc2ccc(-c3nc4cnc(NCC5CC5)nc4n(-c4ccc(OC(F)F)cc4)c3=O)cc21 | 2.4 |  | 
3 | 7.54 | 5.04 | 5.82 | Cn1nnc2ccc(-c3nc4ccc(C5CC5)cc4n(-c4ccc(OC(F)F)cc4)c3=O)cc21 | 3.8 |  | 
4 | 7.01 |  |  | O=c1c(-c2ccc3ncoc3c2)nc2ccc(C3CC3)cc2n1-c1ccc(OC(F)F)cc1 |  |  | 
5 | < 6.00 |  |  | COc1ccc(-c2nc3cnc(NCC(F)(F)F)nc3n(-c3ccc(OC(F)F)nc3)c2=O)cc1 |  |  | 
6 | 7.25 | 5.67 | 6.48 | COc1ccc(-n2cc3cnc(NCC(F)(F)F)nc3c(-c3ccc(Br)cc3)c2=O)cc1 | 6.5 | inactive | Active
7 | 7.19 | 4.74 | 6.28 | Cc1nc2ccc(-c3nc4cnc(NCC(F)(F)F)nc4n(-c4ccc(OC(F)F)cc4)c3=O)cc2n1C | 34.2 |  | 
8 | 7.20 | < 4.70 | 6.51 | Cn1cnc2ccc(-c3nc4cnc(NCC(F)(F)F)nc4n(-c4ccc(OC(F)F)cc4)c3=O)cc21 | >64.5 |  | 
9 | < 6.00 |  |  | COc1ccc(-c2nc3cnc(NCC(F)(F)F)nc3n(-c3cccc(OC(F)F)c3)c2=O)cc1 |  |  | 
10 | 7.08 | 4.78 | 6.40 | O=c1c(-c2ccc3ncn(C4CC4)c3c2)nc2cnc(NCC(F)(F)F)nc2n1-c1ccc(OC(F)F)cc1 | 41.4 |  | 
11 | 7.05 | 5.28 | 6.12 | CC1=Nc2ccc(-c3nc4ccc(C5CC5)cc4n(-c4ccc(OC(F)F)cc4)c3=O)cc2C1(C)C | 6.9 |  | 
12 | 7.31 |  |  | Cn1cnc2ccc(-c3nc4cnc(NC5CC5)nc4n(-c4ccc(OC(F)F)cc4)c3=O)cc21 |  |  | 
13 | 6.82 | < 4.70 | 5.18 | COc1ccc(-c2nc3cnc(NCC(F)(F)F)nc3n(-c3ccc(Br)cc3)c2=O)cc1 | >3.1 |  | 
14 | 7.64 | 6.10 | 6.68 | Cn1cnc2ccc(-c3nc4ccc(C5CC5)nc4n(-c4ccc(OC(F)F)cc4)c3=O)cc21 | 3.8 |  | 
15 | 6.98 | < 4.70 | 5.51 | CCOc1ccc2nc(-c3ccc4ncn(C)c4c3)c(=O)n(-c3ccc(OC(F)F)cc3)c2c1 | >6.5 |  | 
16 | 6.96 and 7.64 | 5.01 | 6.52 | O=c1c(-c2ccc3ncn(C4CCCC4)c3c2)nc2cnc(NCC(F)(F)F)nc2n1-c1ccc(OC(F)F)cc1 | 32.5 |  | 

Row | pIC50 [1] | pIC50 (B16-F10 [2]) | pIC50 (B16-F10 [3]) | Structure (SMILES) | Ratio IC50 [4] | Activity (SF-126) | Activity (MIA PaCa-2)
17 | 7.09 | 4.86 | 5.87 | O=c1c(-c2ccn3nccc3c2)nc2ccc(C3CC3)cc2n1-c1ccc(OC(F)F)cc1 | 10.4 |  | 
18 | < 6.00 |  |  | COc1ccc(-c2nc3cnc(NCC(F)(F)F)nc3n(-c3ccc(C(F)(F)F)cc3)c2=O)cc1 |  |  | 
19 | 7.10 | < 4.70 | 5.36 | Cn1cc2cc(-c3nc4ccc(C5CC5)cc4n(-c4ccc(OC(F)F)cc4)c3=O)ccc2n1 | >4.6 |  | 
20 | 7.05 | < 4.70 | 5.61 | COc1ccc2nc(-c3ccc4ncn(C)c4c3)c(=O)n(-c3ccc(OC(F)F)cc3)c2c1 | >8.1 |  | 
21 | 7.05 | < 4.70 | 5.61 | O=c1c(-c2ccc3c(c2)CCO3)nc2cnc(NCC(F)(F)F)nc2n1-c1ccc(OC(F)F)cc1 | >8.1 |  | 
22 | 7.00 | < 4.70 | 5.48 | COc1ccc(-c2nc3cnc(NCC(F)(F)F)nc3n(-c3ccc(OC(F)F)cc3)c2=O)cc1 | >6.1 |  | 
23 | 6.86 | < 4.70 | 5.03 | COc1ccc(-c2nc3cnc(NCC(F)(F)F)nc3n(-c3ccc(Cl)cc3)c2=O)cc1 | >2.2 |  | 
24 | 6.21 |  |  | Cn1cnc2ccc(-c3nc4cnc(C5CC5)cc4n(-c4ccc(OC(F)F)cc4)c3=O)cc21 |  |  | 
25 | 6.99 | 4.83 | 5.95 | O=c1c(-c2ccc3nncn3c2)nc2ccc(C3CC3)cc2n1-c1ccc(OC(F)F)cc1 | 13.2 |  | 
26 | 7.41 | < 4.70 | 5.90 | Cn1cc2cc(-c3nc4cnc(NCC(F)(F)F)nc4n(-c4ccc(OC(F)F)cc4)c3=O)ccc2n1 | >16 |  | 
27 | 6.94 | < 4.70 | 4.84 | O=c1c(-c2ccc3ncnn3c2)nc2ccc(C3CC3)cc2n1-c1ccc(OC(F)F)cc1 | >1.4 |  | 
28 | 7.42 | < 4.70 | 5.78 | O=c1c(-c2ccc3c(c2)CCCO3)nc2cnc(NCC(F)(F)F)nc2n1-c1ccc(OC(F)F)cc1 | >12 |  | 
29 | 6.64 |  |  | Cn1cnc2ccc(-c3nc4ccc(C5CCC5)cc4n(-c4ccc(OC(F)F)cc4)c3=O)cc21 |  |  | 
30 | 6.86 | 5.48 | 6.43 | CC(C)n1cnc2ccc(-c3nc4ccc(C5CC5)cc4n(-c4ccc(OC(F)F)cc4)c3=O)cc21 | 9 |  | 
31 | 6.36 |  |  | O=c1c(-c2ccc3ncccc3c2)nc2cnc(NCC(F)(F)F)nc2n1-c1ccc(OC(F)F)cc1 |  |  | 
32 | 7.19 | < 4.70 | 6.11 | O=c1c(-c2ccc3nccn3c2)nc2ccc(C3CC3)cc2n1-c1ccc(OC(F)F)cc1 | >25.6 |  | 
